molecular target: human V1a receptor (Homo sapiens (Human), UniProt P37288); assay: human V1a receptor binding studies (3H-Vasopressin, SPA beads); conditions: membranes of HEK293 cells transiently transfected with human V1a receptor, Ki by Cheng-Prussoff
In short: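 Membranes from HEK293 cells transiently expressing cloned human V1a receptor, bound on yttrium silicate SPA beads with 4 nM 3H-vasopressin (added stock) and serially diluted compound, 1 h at room temperature. Non-specific binding defined with cold vasopressin; IC50 by non-linear regression, Ki via Cheng-Prusoff.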

human V1a receptor, sequence (P37288 whole entry): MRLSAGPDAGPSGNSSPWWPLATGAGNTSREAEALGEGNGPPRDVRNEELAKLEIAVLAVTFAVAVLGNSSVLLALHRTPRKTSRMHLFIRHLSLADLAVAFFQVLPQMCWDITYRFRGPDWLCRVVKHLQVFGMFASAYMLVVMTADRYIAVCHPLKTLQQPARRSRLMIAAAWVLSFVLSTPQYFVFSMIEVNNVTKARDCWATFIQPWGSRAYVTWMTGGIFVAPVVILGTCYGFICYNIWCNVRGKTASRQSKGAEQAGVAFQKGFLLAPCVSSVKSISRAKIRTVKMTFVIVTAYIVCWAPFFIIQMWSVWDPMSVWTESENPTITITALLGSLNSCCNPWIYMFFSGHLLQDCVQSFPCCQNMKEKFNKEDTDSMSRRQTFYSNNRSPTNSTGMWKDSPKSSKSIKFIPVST

Compared with `O=C1N=C(N2CCC3(CC2)OCc2ccccc23)SC1=C1CCC1` [Example 75, 5-cyclobutylidene-2-(1′H,3H-spiro[2-benzofuran-1,4′-piperidin]-1′-yl)-1,3-thiazol-4(5H)-one], `O=C1N=C(N2CCC3(CC2)OCc2ccccc23)SC1=C1CCCC1` [Example 53, 5-cyclopentylidene-2-(1′H,3H-spiro[2-benzofuran-1,4′-piperidin]-1′-yl)-1,3-thiazol-4(5H)-one] is higher in “pKi hV1a” value: 7.6 for the first, 8.3 for the second.

Compared with `O=C1N=C(N2CCC3(CC2)OCc2ccccc23)SC1=C(C1CCCC1)C1CCCC1` [Example 118, 5-(dicyclopentylmethylidene)-2-(1′H,3H-spiro[2-benzofuran-1,4′-piperidin]-1′-yl)-1,3-thiazol-4(5H)-one], `COC/C(C)=C1\SC(N2CCC3(CC2)OCc2ccccc23)=NC1=O` [Example 50, (5E/Z)-5-(1-methoxypropan-2-ylidene)-2-(1′H,3H-spiro[2-benzofuran-1,4′-piperidin]-1′-yl)-1,3-thiazol-4(5H)-one] is higher in “pKi hV1a” value: 7.6 for the first, 8.4 for the second.

Compared with `O=C1N=C(N2CCC3(CC2)OCc2ccccc23)SC1=C(C(F)(F)F)C(F)(F)F` [Example 111, 5-(1,1,1,3,3,3-hexafluoropropan-2-ylidene)-2-(1′H,3H-spiro[2-benzofuran-1,4′-piperidin]-1′-yl)-1,3-thiazol-4(5H)-one], `O=C1N=C(N2CCC3(CC2)OCc2ccccc23)S/C1=C(/c1ccc(Cl)cc1)C(F)(F)F` [Example 17, (5Z)-5-[1-(4-chlorophenyl)-2,2,2-trifluoroethylidene]-2-(1′H,3H-spiro[2-benzofuran-1,4′-piperidin]-1′-yl)-1,3-thiazol-4(5H)-one] is higher in “pKi hV1a” value: 7.5 for the first, 8.5 for the second.

Going from `C/C(=C1\SC(N2CCC3(CC2)OCc2ccccc23)=NC1=O)c1ccc(C)nc1` [Example 153, (5E)-5-[1-(6-methylpyridin-3-yl)ethylidene]-2-(1′H,3H-spiro[2-benzofuran-1,4′-piperidin]-1′-yl)-1,3-thiazol-4(5H)-one] to `C/C(=C1\SC(N2CCC3(CC2)OCc2ccccc23)=NC1=O)c1ncccc1C` [Example 155, (5E)-5-[1-(3-methylpyridin-2-yl)ethylidene]-2-(1′H,3H-spiro[2-benzofuran-1,4′-piperidin]-1′-yl)-1,3-thiazol-4(5H)-one], the “pKi hV1a” value rises from 8.3 to 8.7.

First: C/C(=C1/SC(N2CCC3(CC2)OCc2ccccc23)=NC1=O)c1ccc(Cl)cc1 [Example 26, (5Z)-5-[1-(4-chlorophenyl)ethylidene]-2-(1′H,3H-spiro[2-benzofuran-1,4′-piperidin]-1′-yl)-1,3-thiazol-4(5H)-one]
Second: C/C(=C1\SC(N2CCC3(CC2)OCc2ccccc23)=NC1=O)c1ccc(Cl)cc1 [Example 27, (5E)-5-[1-(4-chlorophenyl)ethylidene]-2-(1′H,3H-spiro[2-benzofuran-1,4′-piperidin]-1′-yl)-1,3-thiazol-4(5H)-one]
The “pKi hV1a” value of the first is higher: 9.2 for the first, 8.3 for the second.

Going from `C/C(=C1/SC(N2CCC3(CC2)OCc2ccccc23)=NC1=O)c1ccncc1F` [Example 158, (5Z)-5-[1-(3-fluoropyridin-4-yl)ethylidene]-2-(1′H,3H-spiro[2-benzofuran-1,4′-piperidin]-1′-yl)-1,3-thiazol-4(5H)-one] to `C/C(=C1/SC(N2CCC3(CC2)OCc2ccccc23)=NC1=O)c1cccnc1F` [Example 61, (5Z)-5-[1-(2-fluoropyridin-3-yl)ethylidene]-2-(1′H,3H-spiro[2-benzofuran-1,4′-piperidin]-1′-yl)-1,3-thiazol-4(5H)-one], the “pKi hV1a” value rises from 8.4 to 9.1.

Going from `O=C1N=C(N2CCC3(CC2)OCc2ccccc23)S/C1=C(/CO)c1ccc(Cl)nc1` [Example 130, (5E)-5-[1-(6-chloropyridin-3-yl)-2-hydroxyethylidene]-2-(1′H,3H-spiro[2-benzofuran-1,4′-piperidin]-1′-yl)-1,3-thiazol-4(5H)-one] to `[2H]C([2H])([2H])/C(=C1/SC(N2CCC3(CC2)OCc2ccccc23)=NC1=O)c1ccc(Cl)nc1` [Example 171, (5Z)-5-[1-(6-chloropyridin-3-yl)(^2H3)ethylidene]-2-(1′H,3H-spiro[2-benzofuran-1,4′-piperidin]-1′-yl)-1,3-thiazol-4(5H)-one], the “pKi hV1a” value rises from 8.9 to 9.3.

First: C/C(=C1/SC(N2CCC3(CC2)OCc2ccccc23)=NC1=O)c1cnc[nH]1 [Example 117, (5E/Z)-5-[1-(1H-imidazol-5-yl)ethylidene]-2-(1′H,3H-spiro[2-benzofuran-1,4′-piperidin]-1′-yl)-1,3-thiazol-4(5H)-one]
Second: C/C(=C1/SC(N2CCC3(CC2)OCc2ccccc23)=NC1=O)c1ncc[nH]1 [Example 107, (5Z)-5-[1-(1H-imidazol-2-yl)ethylidene]-2-(1′H,3H-spiro[2-benzofuran-1,4′-piperidin]-1′-yl)-1,3-thiazol-4(5H)-one]
The “pKi hV1a” value of the first is higher: 7.3 for the first, 6.8 for the second.

Compared with `C/C(=C1/SC(N2CCC3(CC2)OCc2ccccc23)=NC1=O)c1cc2ncccc2o1` [Example 108, (5E/Z)-5-[1-(furo[3,2-b]pyridin-2-yl)ethylidene]-2-(1′H,3H-spiro[2-benzofuran-1,4′-piperidin]-1′-yl)-1,3-thiazol-4(5H)-one], `C/C(=C1/SC(N2CCC3(CC2)OCc2ccccc23)=NC1=O)c1ccccc1Cl` [Example 14, (5E/Z)-5-[1-(2-chlorophenyl)ethylidene]-2-(1′H,3H-spiro[2-benzofuran-1,4′-piperidin]-1′-yl)-1,3-thiazol-4(5H)-one] is higher in “pKi hV1a” value: 7.0 for the first, 8.5 for the second.

Compared with `O=C1N=C(N2CCC3(CC2)OCc2ccccc23)SC1=C(c1ccccn1)c1ccccn1` [Example 110, 5-[di(pyridin-2-yl)methylidene]-2-(1′H,3H-spiro[2-benzofuran-1,4′-piperidin]-1′-yl)-1,3-thiazol-4(5H)-one], `O=C1N=C(N2CCC3(CC2)OCc2ccccc23)S/C1=C\c1ccccn1` [Example 90, (5Z)-5-(pyridin-2-ylmethylidene)-2-(1′H,3H-spiro[2-benzofuran-1,4′-piperidin]-1′-yl)-1,3-thiazol-4(5H)-one] is lower in “pKi hV1a” value: 7.6 for the first, 7.3 for the second.

First: CC(C)(C)OC(=O)N1CCC/C(=C2/SC(N3CCC4(CC3)OCc3ccccc34)=NC2=O)CC1 [Example 80, tert-butyl (4E/Z)-4-[4-oxo-2-(1′H,3H-spiro[2-benzofuran-1,4′-piperidin]-1′-yl)-1,3-thiazol-5(4H)-ylidene]azepane-1-carboxylate]
Second: CC(C)C(=C1SC(N2CCC3(CC2)OCc2ccccc23)=NC1=O)C(C)C [Example 120, 5-(2,4-dimethylpentan-3-ylidene)-2-(1′H,3H-spiro[2-benzofuran-1,4′-piperidin]-1′-yl)-1,3-thiazol-4(5H)-one]
The “pKi hV1a” value of the first is lower: 7.1 for the first, 8.8 for the second.

First: C/C(=C1\SC(N2CCC3(CC2)OC(=O)c2ccccc23)=NC1=O)c1ccc(Cl)nc1 [Example 138, 1′-{(5E)-5-[1-(6-chloropyridin-3-yl)ethylidene]-4-oxo-4,5-dihydro-1,3-thiazol-2-yl}-3H-spiro[2-benzofuran-1,4′-piperidin]-3-one]
Second: CC(C)(C)[Si](C)(C)OC/C(=C1/SC(N2CCC3(CC2)OC(=O)c2ccccc23)=NC1=O)c1ccc(Cl)nc1 [Example 144, 1′-{(5E)-5-[2-{[tert-butyl(dimethyl)silyl]oxy}-1-(6-chloropyridin-3-yl)ethylidene]-4-oxo-4,5-dihydro-1,3-thiazol-2-yl}-3H-spiro[2-benzofuran-1,4′-piperidin]-3-one]
The “pKi hV1a” value of the first is higher: 8.3 for the first, 8.0 for the second.

Going from `CC(C)(C)[Si](C)(C)OC/C(=C1\SC(N2CCC3(CC2)OCc2ccccc23)=NC1=O)c1ccc(Cl)nc1` [Example 131, (5Z)-5-[2-{[tert-butyl(dimethyl)silyl]oxy}-1-(6-chloropyridin-3-yl)ethylidene]-2-(1′H,3H-spiro[2-benzofuran-1,4′-piperidin]-1′-yl)-1,3-thiazol-4(5H)-one] to `O=C1N=C(N2CCC3(CC2)OCc2ccccc23)S/C1=C(\c1ccc(Cl)cc1)C(F)(F)F` [Example 18, (5E)-5-[1-(4-chlorophenyl)-2,2,2-trifluoroethylidene]-2-(1′H,3H-spiro[2-benzofuran-1,4′-piperidin]-1′-yl)-1,3-thiazol-4(5H)-one], the “pKi hV1a” value rises from 7.8 to 9.1.

First: O=C1N=C(N2CCC3(CC2)OCc2ccccc23)SC1=C1c2ccccc2C=Cc2ccccc21 [Example 99, 5-(5H-dibenzo[a,d][7]annulen-5-ylidene)-2-(1′H,3H-spiro[2-benzofuran-1,4′-piperidin]-1′-yl)-1,3-thiazol-4(5H)-one]
Second: O=C1N=C(N2CCC3(CC2)OCc2ccccc23)SC1=C1c2ccccc2Oc2ccccc21 [Example 103, 2-(1′H,3H-spiro[2-benzofuran-1,4′-piperidin]-1′-yl)-5-(9H-xanthen-9-ylidene)-1,3-thiazol-4(5H)-one]
The “pKi hV1a” value of the first is lower: 8.4 for the first, 8.6 for the second.

Going from `CC(C)CC(CC(C)C)=C1SC(N2CCC3(CC2)OCc2ccccc23)=NC1=O` [Example 116, 5-(2,6-dimethylheptan-4-ylidene)-2-(1′H,3H-spiro[2-benzofuran-1,4′-piperidin]-1′-yl)-1,3-thiazol-4(5H)-one] to `C/C(=C1\SC(N2CCC3(CC2)OCc2ccccc23)=NC1=O)c1c(C)noc1C` [Example 106, (5E)-5-[1-(3,5-dimethyl-1,2-oxazol-4-yl)ethylidene]-2-(1′H,3H-spiro[2-benzofuran-1,4′-piperidin]-1′-yl)-1,3-thiazol-4(5H)-one], the “pKi hV1a” value falls from 8.3 to 7.3.

Going from `O=C1N=C(N2CCC3(CC2)OCc2ccccc23)SC1=C(c1ccc(Cl)cc1)c1ccc(Cl)cc1` [Example 100, 5-[bis(4-chlorophenyl)methylidene]-2-(1′H,3H-spiro[2-benzofuran-1,4′-piperidin]-1′-yl)-1,3-thiazol-4(5H)-one] to `[2H]C([2H])([2H])/C(=C1\SC(N2CCC3(CC2)OCc2ccccc23)=NC1=O)c1ccccc1` [Example 174, (5E)-5-[1-phenyl(^2H3)ethylidene]-2-(1′H,3H-spiro[2-benzofuran-1,4′-piperidin]-1′-yl)-1,3-thiazol-4(5H)-one], the “pKi hV1a” value rises from 7.1 to 8.7.
